Seven compounds from patent US8809352B2, “Sulfonamides as inhibitors of Bcl-2 family proteins for the treatments of cancer” (Novartis AG, priority 2009, dated 2014) can be followed below.

Broadly, the IC50 is the midpoint of a concentration-inhibition curve.

Chain of BCL2 (P10415 whole entry): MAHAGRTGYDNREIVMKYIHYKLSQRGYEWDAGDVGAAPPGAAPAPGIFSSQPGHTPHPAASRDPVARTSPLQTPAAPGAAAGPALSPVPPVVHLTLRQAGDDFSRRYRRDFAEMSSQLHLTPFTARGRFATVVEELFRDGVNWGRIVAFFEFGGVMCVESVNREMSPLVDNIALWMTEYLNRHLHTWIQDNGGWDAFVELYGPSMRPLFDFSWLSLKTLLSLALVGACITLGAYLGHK

This assay has as its target BCL2 (Homo sapiens, UniProt P10415). The assay is described as follows: Biacore SPR solution inhibition assay of BCL-2 binding to peptide derivatized sensor surfaces. The settings on record: SPR competition; 56 nM BCL2 pre-equilibrated with compound one hour; biotinylated BAK, BAD and NOXA peptide surfaces; 25° C. The source says: The present method includes utility of a Surface plasmon resonance (SPR)-based biosensor (Biacore™ GE Healthcare, Uppsala, Sweden) to characterize BCL-2 inhibitors.
Biacore™ utilizes the phenomenon of surface plasmon resonance (SPR) to detect and measure binding interactions. In a typical Biacore experiment, one of the interacting molecules (ligand) is immobilized on a flexible dextran matrix while the interacting partner (analyte) is allowed to flow across that surface. A binding interaction results in an increase in mass on the sensor surface and a corresponding direct change in the refractive index of the medium in the vicinity of the sensor surface. Changes in refractive index or signal are recorded in resonance units (R.U.) Signal changes due to association and dissociation of complexes are monitored in a non-invasive manner, continuously and in real-time, the results of which are reported in the form of a sensorgram. The SPR assay is configured to examine solution inhibition of BCL-2 binding to peptide derivatized sensor surfaces to generate […] values as a measure of inhibitor potency.
Biacore™ A100 (GE Healthcare, Uppsala, Sweden) was used to conduct all experiments reported herein. Sensor surface preparation and all interaction analyses experiments were performed at 25° C. Reagents were purchased from GE Healthcare. Running buffer containing 10 mM Hepes, pH7.4, 150 mM sodium chloride, 1.25 mM Dithiothreitol, 3% Dimethyl sulfoxide and 0.05% polysorbate 20 were utilized throughout all analyses.
Biotinylated BAK, BAD and NOXA peptides were diluted to 10 nM in running buffer and captured onto a sensor surface pre-derivatized with streptavidin (sensor chip SA) to peptide surface densities in the range 50-100 R.U. Peptide captured surfaces were blocked with 500 μM PEO2-Biotin.
Interaction analyses were performed by first equilibrating each sample within a 6 point three fold compound dilution series in the range 16 μM to 0.004 nM with 56 nM BCL2 for one hour during instrument start-up procedures. Protein compound mixtures were then injected over each peptide surface in parallel for 60 seconds at a flow-rate of 30 μL/min. 56 nM BCL2 control samples were also prepared and run at regular intervals during the assay. Surface regeneration was performed at the end of each analysis cycle by two 30 second injections of 10 mM Glycine, pH 2.5, 1M Sodium Chloride, 0.05% polysorbate 20. Samples and control compound samples were run in duplicate and controls are also run at regular intervals during the assay to monitor surface and assay performance.
Data analyses are carried out using Biacore™ A100 evaluation software v1.1 to validate assay quality. Binding level report points were used relative to BCL2 control samples to calculate % inhibition values for each compound protein mixture.
(In general: SPR reads the build-up and loss of mass on a sensor chip optically.)
As to `CN(C)CC[C@H](CSc1ccccc1)Nc1ccc(S(=O)(=O)Nc2ncnc3c2CCN(C2CCN(Cc4ccccc4Br)CC2)C3)cc1S(=O)(=O)C(F)(F)F` [Example 7, (R)-N-(7-(1-(2-bromobenzyl)piperidin-4-yl)-5,6,7,8-tetrahydropyrido[3,4-d]pyrimidin-4-yl)-4-(4-(dimethylamino)-1-(phenylthio)butan-2-ylamino)-3-(trifluoromethylsulfonyl)benzenesulfonamide], the IC50 was 0.506 µM.
Turning to `[2H]C1(N2CCc3c(ncnc3NS(=O)(=O)c3ccc(N[C@H](CCN4CCN(CC)CC4)CSc4ccccc4)c(S(=O)(=O)C(F)(F)F)c3)C2)CCN(Cc2cc(F)ccc2-c2ccc(Cl)cc2)CC1` [Example 89, (R)-N-(7-(1-((4′-chloro-4-fluorobiphenyl-2-yl)methyl)-4-deuteropiperidin-4-yl)-5,6,7,8-tetrahydropyrido[3,4-d]pyrimidin-4-yl)-4-(4-(4-ethylpiperazin-1-yl)-1-(phenylthio)butan-2-ylamino)-3-(trifluoromethylsulfonyl)benzenesulfonamide], the IC50 came to 0.035 µM.
Regarding `[2H]C1(N2CCc3c(nc(N(C)C)nc3NS(=O)(=O)c3ccc(N[C@H](CCN4CCN(C)CC4)CSc4ccccc4F)c(S(=O)(=O)C(F)(F)F)c3)C2)CCN(CC2=C(c3ccc(Cl)cc3)CC(C)(C)CC2)CC1` [Example 75, (R)-N-(7-(1-((2-(4-chlorophenyl)-4,4-dimethylcyclohex-1-enyl)methyl)-4-deuteropiperidin-4-yl)-2-(dimethylamino)-5,6,7,8-tetrahydropyrido[3,4-d]pyrimidin-4-yl)-4-(1-(2-fluorophenylthio)-4-(4-methylpiperazin-1-yl)butan-2-ylamino)-3-(trifluoromethylsulfonyl)benzenesulfonamide], the IC50 worked out at 0.066 µM.
`C[C@H]1CC(N2CCc3c(ncnc3NS(=O)(=O)c3ccc(N[C@H](CCN(C)C)CSc4ccccc4)c(S(=O)(=O)C(F)(F)F)c3)C2)CCN1Cc1ccccc1-c1ccc(Cl)cc1` (mixture of isomers) [Example 4, N-(7-((2S)-1-((4′-chlorobiphenyl-2-yl)methyl)-2-methylpiperidin-4-yl)-5,6,7,8-tetrahydropyrido[3,4-d]pyrimidin-4-yl)-4-((R)-4-(dimethylamino)-1-(phenylthio)butan-2-ylamino)-3-(trifluoromethylsulfonyl)benzenesulfonamide]: the IC50 worked out at 0.022 µM.
For the compound `O=S(=O)(Nc1ncnc2c1CCN(C1CCN(Cc3ccccc3-c3ccc(Cl)cc3)CC1F)C2)c1ccc(N[C@H](CCN2CCOCC2)CSc2ccccc2)c(S(=O)(=O)C(F)(F)F)c1` (stereo partly drawn) [Example 65, N-(7-(1((4′-Chlorobiphenyl-2-yl)methyl)-3-fluoropiperidin-4-yl)-5,6,7,8-tetrahydropyrido[3,4-d]pyrimidin-4-yl)-4-((R)-4-morpholino-1-(phenylthio)butan-2-ylamino)-3-(trifluoromethylsulfonyl)benzenesulfonamide], the IC50 stood at 0.181 µM.
Consider `C[C@H]1CC(N2CCc3c(ncnc3NS(=O)(=O)c3ccc(N[C@H](CCN(C)C)CSc4ccccc4)c([N+](=O)[O-])c3)C2)CCN1Cc1ccccc1-c1ccc(Cl)cc1` (mixture of isomers) [Example 3], for which the IC50 came out at 0.062 µM.
As for `CN(C)CC[C@H](CSc1ccccc1)Nc1ccc(S(=O)(=O)Nc2ncnc3c2CCN(C2CCN(Cc4ccc(F)cc4-c4ccc(Cl)cc4)CC2)C3)cc1S(=O)(=O)C(F)(F)F` [Example 19, (R)-N-(7-(1-((4′-chloro-5-fluorobiphenyl-2-yl)methyl)piperidin-4-yl)-5,6,7,8-tetrahydropyrido[3,4-d]pyrimidin-4-yl)-4-(4-(dimethylamino)-1-(phenylthio)butan-2-ylamino)-3-(trifluoromethylsulfonyl)benzenesulfonamide], the IC50 is 0.035 µM.
